Common to all, as to conditions: for inhibition at 1000 µM: 10^–3 M; for inhibition at 100 µM: 10^–4 M
The target of one assay is T1, MAO-B (Homo sapiens, UniProt P27338).
T1 sequence (P27338 1-520): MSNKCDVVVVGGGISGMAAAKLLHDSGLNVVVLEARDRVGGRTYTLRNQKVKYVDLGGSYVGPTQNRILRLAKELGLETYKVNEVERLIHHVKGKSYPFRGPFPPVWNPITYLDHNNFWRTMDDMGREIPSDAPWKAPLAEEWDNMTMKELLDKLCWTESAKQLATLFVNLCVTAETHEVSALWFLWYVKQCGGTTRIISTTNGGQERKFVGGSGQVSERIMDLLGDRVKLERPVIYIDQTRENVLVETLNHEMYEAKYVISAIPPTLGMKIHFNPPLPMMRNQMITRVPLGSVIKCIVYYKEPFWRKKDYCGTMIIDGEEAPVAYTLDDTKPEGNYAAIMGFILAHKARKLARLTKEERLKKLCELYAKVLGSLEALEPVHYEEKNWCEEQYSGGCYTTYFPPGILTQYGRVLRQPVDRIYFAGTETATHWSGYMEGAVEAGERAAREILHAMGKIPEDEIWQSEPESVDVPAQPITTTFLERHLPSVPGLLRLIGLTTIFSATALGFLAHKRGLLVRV
As to the kind of experiment: In vitro MAO-B inhibition assay (fluorometric). Type of assay: biochemical.

The target in another assay is AChE (Homo sapiens, UniProt P22303). As to the kind of experiment: biochemical. The method, then: (§1) According to the modified Ellman approach outlined in our team’s earlier work, the AChE and BChE inhibitory activities of the obtained compounds were evaluated.[18]−[21]
In a further assay the target is BChE (Homo sapiens, UniProt P06276). As to the kind of experiment: biochemical. As for the experimental part:
as §1

Another assay deals with T2, MAO-A (Homo sapiens, UniProt P21397).
T2 sequence (P21397 1-527): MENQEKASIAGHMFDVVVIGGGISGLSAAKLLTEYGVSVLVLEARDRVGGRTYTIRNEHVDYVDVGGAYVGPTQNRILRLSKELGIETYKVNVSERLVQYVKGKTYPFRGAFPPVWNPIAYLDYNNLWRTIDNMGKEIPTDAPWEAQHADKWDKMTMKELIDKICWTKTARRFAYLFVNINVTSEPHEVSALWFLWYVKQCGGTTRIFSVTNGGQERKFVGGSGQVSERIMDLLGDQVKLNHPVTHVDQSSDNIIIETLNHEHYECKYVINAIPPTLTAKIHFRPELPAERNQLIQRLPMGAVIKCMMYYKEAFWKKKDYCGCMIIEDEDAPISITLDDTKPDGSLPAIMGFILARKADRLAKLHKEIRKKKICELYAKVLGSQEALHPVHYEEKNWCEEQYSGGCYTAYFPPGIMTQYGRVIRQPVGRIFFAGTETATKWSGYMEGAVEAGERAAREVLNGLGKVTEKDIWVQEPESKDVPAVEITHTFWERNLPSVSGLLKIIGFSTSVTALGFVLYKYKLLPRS
As to the kind of experiment: In vitro MAO-A inhibition assay (fluorometric). Type of assay: biochemical.

This note sets out measurements from PMC9774391 (ACS Omega, 2022).

Sequence of BChE (P06276 29-602): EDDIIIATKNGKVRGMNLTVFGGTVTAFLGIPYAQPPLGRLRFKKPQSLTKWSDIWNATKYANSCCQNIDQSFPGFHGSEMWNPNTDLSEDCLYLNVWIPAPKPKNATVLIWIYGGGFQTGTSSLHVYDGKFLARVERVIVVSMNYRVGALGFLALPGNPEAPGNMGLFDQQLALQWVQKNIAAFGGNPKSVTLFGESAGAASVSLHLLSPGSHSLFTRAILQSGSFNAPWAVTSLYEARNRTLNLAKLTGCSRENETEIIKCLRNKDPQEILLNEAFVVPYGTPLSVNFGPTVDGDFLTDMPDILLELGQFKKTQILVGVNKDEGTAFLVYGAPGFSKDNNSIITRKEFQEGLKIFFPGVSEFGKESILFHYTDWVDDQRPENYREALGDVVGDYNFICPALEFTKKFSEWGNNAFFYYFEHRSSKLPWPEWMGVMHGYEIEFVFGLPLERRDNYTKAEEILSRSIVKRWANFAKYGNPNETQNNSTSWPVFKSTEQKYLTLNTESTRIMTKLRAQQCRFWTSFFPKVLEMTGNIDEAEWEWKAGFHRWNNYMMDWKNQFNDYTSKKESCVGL
Sequence of AChE (P22303 32-614): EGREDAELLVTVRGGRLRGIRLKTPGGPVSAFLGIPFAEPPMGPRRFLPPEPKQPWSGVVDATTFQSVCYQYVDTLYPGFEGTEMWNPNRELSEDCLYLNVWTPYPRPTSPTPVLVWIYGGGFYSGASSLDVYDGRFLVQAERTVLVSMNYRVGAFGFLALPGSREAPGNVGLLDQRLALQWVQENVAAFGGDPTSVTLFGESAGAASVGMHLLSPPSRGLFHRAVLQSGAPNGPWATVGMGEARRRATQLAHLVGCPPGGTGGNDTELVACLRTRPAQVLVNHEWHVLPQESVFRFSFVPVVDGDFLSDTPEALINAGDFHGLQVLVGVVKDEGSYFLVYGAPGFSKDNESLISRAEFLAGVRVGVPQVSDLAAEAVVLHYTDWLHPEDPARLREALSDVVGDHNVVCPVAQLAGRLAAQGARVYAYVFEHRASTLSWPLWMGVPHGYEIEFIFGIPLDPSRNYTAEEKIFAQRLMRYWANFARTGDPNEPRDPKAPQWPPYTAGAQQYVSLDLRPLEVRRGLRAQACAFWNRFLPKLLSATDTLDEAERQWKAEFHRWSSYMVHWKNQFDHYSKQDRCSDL

With `COc1ccc2c(c1)C/C(=C\c1ccc(NC(=O)CN3CCN(C)CC3)cc1)C2=O` [D1], the inhibition (commonly the drop in the measured response relative to a control, in per cent) at 1000 µM on MAO-B worked out at 65.12 ± 0.623%; at AChE, 83.2 ± 1.09%; against BChE it was 94.6 ± 0.972%; against MAO-A it was 59 ± 0.598%. The inhibition at 100 µM against MAO-B turned out to be 38.7 ± 0.512%; on AChE, 47.3 ± 0.887%; against BChE it was 32.8 ± 0.455%; against MAO-A, 21.4 ± 0.424%.
Consider `COc1ccc2c(c1)C(=O)/C(=C/c1ccc(NC(=O)CN3CCN(C)CC3)cc1)C2` [D2], for which the inhibition at 1000 µM is 75.3 ± 0.987% at MAO-B, 50.3 ± 0.731% against AChE, 61.3 ± 0.18% against BChE and 46.6 ± 0.853% against MAO-A. Also, the inhibition at 100 µM stood at 45.3 ± 0.859% at MAO-B, 42.9 ± 0.601% on AChE, 23.6 ± 0.226% against BChE and 27.7 ± 0.909% against MAO-A.
For the compound `COc1cc2c(cc1OC)C(=O)/C(=C/c1ccc(NC(=O)CN3CCN(C)CC3)cc1)C2` [D3], the inhibition at 1000 µM on MAO-B was 67.2 ± 0.751%; against AChE it was 99.3 ± 2.34%; on BChE it was 98.1 ± 1.57%; against MAO-A, 57.5 ± 0.875%. The inhibition at 100 µM is 36.2 ± 0.452% against MAO-B, 44.1 ± 0.906% at AChE, 40.4 ± 0.548% against BChE and 26.5 ± 0.365% against MAO-A.
Take `CCN1CCN(CC(=O)Nc2ccc(/C=C3\Cc4cc(OC)ccc4C3=O)cc2)CC1` [D4]: the inhibition at 1000 µM at MAO-B was determined as 77.1 ± 1.06%; at AChE, 74.5 ± 1.02%; against BChE it was 92.9 ± 2.41%; against MAO-A, 67.6 ± 1.06%. The inhibition at 100 µM against MAO-B worked out at 36.3 ± 0.496%; on AChE it was 38.2 ± 0.479%; against BChE, 21.21 ± 0.11%; against MAO-A it was 20.9 ± 0.455%.
As to `CCN1CCN(CC(=O)Nc2ccc(/C=C3\Cc4ccc(OC)cc4C3=O)cc2)CC1` [D5], the inhibition at 1000 µM stood at 75.6 ± 1.08% at MAO-B, 38.6 ± 0.518% against AChE, 55.6 ± 549% at BChE and 66.6 ± 1.49% against MAO-A. For the same compound, the inhibition at 100 µM is 44.4 ± 0.627% on MAO-B, 31.7 ± 0.499% against AChE, 26.3 ± 0.211% against BChE and 24.7 ± 0.514% against MAO-A.
With `CCN1CCN(CC(=O)Nc2ccc(/C=C3\Cc4cc(OC)c(OC)cc4C3=O)cc2)CC1` [D6], the inhibition at 1000 µM is 95.5 ± 1.25% against MAO-B, 97.5 ± 2.23% against AChE, 96.51 ± 0.317% against BChE and 93.27 ± 0.309% against MAO-A. The inhibition at 100 µM against MAO-B is 48.6 ± 1.13%; against AChE, 31.3 ± 0.697%; against BChE, 32.8 ± 0.908%; on MAO-A, 33.9 ± 1.13%.
For the compound `C=CCN1CCN(CC(=O)Nc2ccc(/C=C3\Cc4cc(OC)ccc4C3=O)cc2)CC1` [D7], the inhibition at 1000 µM was 66.33 ± 0.557% against MAO-B, 61.3 ± 1.01% on AChE, 56.8 ± 0.971% at BChE and 61.89 ± 0.618% against MAO-A. The inhibition at 100 µM against MAO-B is 47.9 ± 0.952%; at AChE it was 34.8 ± 0.472%; against BChE, 21.2 ± 0.378%; against MAO-A, 41.4 ± 0.808%.
For `C=CCN1CCN(CC(=O)Nc2ccc(/C=C3\Cc4ccc(OC)cc4C3=O)cc2)CC1` [D8], the inhibition at 1000 µM worked out at 78.6 ± 1.15% against MAO-B, 51 ± 0.995% against AChE, 51 ± 0.667% on BChE and 57.2 ± 1.34% at MAO-A. The inhibition at 100 µM against MAO-B stood at 46.2 ± 0.547%; against AChE, 42 ± 0.661%; at BChE, 28.4 ± 0.409%; against MAO-A, 26.6 ± 0.455%.
As for `C=CCN1CCN(CC(=O)Nc2ccc(/C=C3\Cc4cc(OC)c(OC)cc4C3=O)cc2)CC1` [D9], the inhibition at 1000 µM against MAO-B was determined as 58.63 ± 0.523%; on AChE, 81.3 ± 1.13%; against BChE, 82.8 ± 1.03%; at MAO-A, 32.6 ± 0.389%. The inhibition at 100 µM against MAO-B worked out at 34.8 ± 0.384%; against AChE, 45.2 ± 0.996%; on BChE, 28.2 ± 0.679%; at MAO-A, 24.5 ± 0.459%.
Regarding `C#CCN1CCN(CC(=O)Nc2ccc(/C=C3\Cc4cc(OC)ccc4C3=O)cc2)CC1` [D10], the inhibition at 1000 µM on MAO-B is 68.96 ± 0.578%; on AChE it was 71.3 ± 1.01%; at BChE, 41.3 ± 0.755%; against MAO-A it was 48.9 ± 0.966%. Moreover, the inhibition at 100 µM on MAO-B is 42.6 ± 0.652%; at AChE, 29.4 ± 0.587%; against BChE, 26.6 ± 1.35%; on MAO-A, 22.4 ± 0.662%.
For `C#CCN1CCN(CC(=O)Nc2ccc(/C=C3\Cc4ccc(OC)cc4C3=O)cc2)CC1` [D11], the inhibition at 1000 µM on MAO-B stood at 79.6 ± 1.13%; at AChE, 66.6 ± 0.985%; at BChE, 91.7 ± 1.21%; at MAO-A it was 77 ± 1.59%. The inhibition at 100 µM stood at 35.6 ± 0.488% against MAO-B, 49.9 ± 0.809% at AChE, 33.9 ± 0.569% on BChE and 25.5 ± 0.52% against MAO-A.
With `C#CCN1CCN(CC(=O)Nc2ccc(/C=C3\Cc4cc(OC)c(OC)cc4C3=O)cc2)CC1` [D12], the inhibition at 1000 µM came to 96.2 ± 1.34% on MAO-B, 96.5 ± 2.7% against AChE, 98.4 ± 1.79% against BChE and 95.76 ± 0.49% against MAO-A. Moreover, the inhibition at 100 µM against MAO-B came to 49 ± 0.623%; against AChE, 49.7 ± 0.988%; against BChE, 48.8 ± 0.529%; against MAO-A, 45.1 ± 0.466%.
With `COCCN1CCN(CC(=O)Nc2ccc(/C=C3\Cc4cc(OC)ccc4C3=O)cc2)CC1` [D13], the inhibition at 1000 µM worked out at 84.6 ± 1.11% against MAO-B, 71.2 ± 1.07% on AChE, 90.1 ± 1.46% on BChE and 82.7 ± 1.21% against MAO-A. Moreover, the inhibition at 100 µM came to 44.6 ± 0.557% against MAO-B, 43 ± 0.998% against AChE, 23.9 ± 0.934% on BChE and 35.5 ± 0.623% on MAO-A.
Turning to `COCCN1CCN(CC(=O)Nc2ccc(/C=C3\Cc4ccc(OC)cc4C3=O)cc2)CC1` [D14], the inhibition at 1000 µM against MAO-B was determined as 69 ± 0.847%; against AChE, 44.2 ± 0.999%; against BChE, 73.7 ± 1.51%; on MAO-A, 48.5 ± 0.749%. For the same compound, the inhibition at 100 µM on MAO-B was 39.3 ± 0.652%; against AChE it was 36.3 ± 0.664%; against BChE, 33 ± 0.721%; against MAO-A it was 27.95 ± 0.243%.
As to `COCCN1CCN(CC(=O)Nc2ccc(/C=C3\Cc4cc(OC)c(OC)cc4C3=O)cc2)CC1` [D15], the inhibition at 1000 µM against MAO-B was found to be 80.2 ± 1.46%; against AChE it was 91.6 ± 2.56%; against BChE, 94.6 ± 1.6%; against MAO-A, 70.52 ± 0.536%. Moreover, the inhibition at 100 µM turned out to be 40.1 ± 0.508% at MAO-B, 43.4 ± 0.877% against AChE, 43.5 ± 0.966% on BChE and 20.3 ± 0.412% at MAO-A.
On to `COc1ccc2c(c1)C/C(=C\c1ccc(NC(=O)CN3CCN(CCO)CC3)cc1)C2=O` [D16], for which the inhibition at 1000 µM against MAO-B is 75.6 ± 1.1%; against AChE, 88 ± 1.09%; on BChE it was 87.63 ± 0.618%; at MAO-A, 65.8 ± 0.779%. The inhibition at 100 µM against MAO-B was determined as 42.9 ± 0.629%; against AChE, 42.6 ± 1.85%; at BChE, 23.6 ± 0.448%; at MAO-A, 22 ± 0.233%.
